Test results: patent US6613304B2, “Radiometal complexes of 2-pyrrolylthiones and their use as radiopharmaceuticals for imaging and therapy” (University of British Columbia, priority 2000, dated 2003)
Entries after “also recorded” stand apart in the source; their conditions may differ.

Assays:
[1] = Stability towards oxidation; assay type: physicochemical; settings: for stability towards oxidation: in solid state and in solution
[2] = cited from earlier work; for clearance relative to OIH: % of that of OIH
[3] = cited from earlier work
[4] = Renal imaging: scintigraphic biodistribution of Tc-99m complexes in rats; assay type: in vivo, male Sprague and Dawley rats; settings: for scintigraphic image of the kidneys: one hour post injection, FIG. 5; for accumulation in the cortex: 1.5 min post injection, very fast linear accumulation
Protocol: A group of 3 male Sprague and Dawley rats were anaesthetised by intra-muscluar administration of a mixture of Ketamine Xylazine (1 ml/Kg). A 26 guage Butterfly was introduced into the lateral tail vein and filled with heparinised physiological saline. The animals were injected with the indicated radiopharmaceutical, in the minutes following the beginning of the acquisition.
Dose activities were measured in an Accucal 2001 dose calibrator Nuclear Pharmacy Inc. (Albuquerque, N. Mex., U.S.A). Scvintigraphic mages were recorded with a Starcam 4000i XRT Gamma camera General Electric (Saint Albans, UK) equipped with a parallel, medium energy, high resolution collimator. Image analysis was performed on a Genie PNR model nuclear medicine dedicated computer General Electric (Saint Albans, UK).
The camera was set to record a series of 32 images at 1 min intervals each, the animals were injected successively starting from animal A after the camera was started. All injections were finished within the first one and a half minute. Following each injection the catheter was flushed with 0.5 ml of physiological saline. Following this first acquisition a second dynamic acquisition was recorded at a rate of one image every 10 minutes. The animals woke up 90 min after injection at which time the study was terminated.
For analysis, the areas of interest were traced around the organs of interest (right and left kidneys for the first dynamic study; and heart, left kidney and bladder at image 60 min. post-injection on the second study) and the whole body of the rats. The result were expressed as counts per seconds or as percent of the whole body activity at a given time, and are presented in FIGS. 5-9.

[5] = healthy subjects; cited from earlier work

## COc1ccc(C(=S)c2ccc[nH]2)cc1OC [3,4-dimethoxyphenyl-2-pyrrolylthione, 3,4-Dimethoxyphenyl-2-pyrrolylthione]
[1]; atmospheric oxygen
  stability at room temperature: unstable at room temperature

## Nc1ccc(C(=O)NCC(=O)O)cc1 [PAH, p-aminohippurate]
[2]; in vivo
  extracted from the renal arterial plasma in a single pass through the renal parenchyma: ~90%

## O=C(O)CNC(=O)c1ccc(NC(=O)CN(CC(=O)O)CC(=O)O)cc1 [PAHIDA, p-[(biscarboxymethylaminomethyl)carbamino]hippuric acid]
[2]
  clearance relative to OIH: less than 50%

## O=C([O-])CN=C([O-])CN=C([O-])CN=C([O-])C[S-].[O-2].[Tc+4] [Tc-99m-MAG3, ^99mTc-mercaptoacetyltriglycine]
[2]
  clearance relative to OIH: 50-60%
[2]; a few minutes post injection
  injected dose found in the kidneys: 1-2%
[3]
  plasma protein binding: very high

## Bis(2,2′-dipyrrolylthionato) ^99g Tc]oxotechnetium [compound 6]
[1]
  stability towards oxidation: stable towards oxidation

## Bis(3,4-dimethoxyphenyl-2-pyrrolylthionato) [99g Tc]oxotechnetium [compound 8]
[1]
  stability towards oxidation: stable towards oxidation

## Bis(p-methoxyphenyl-2-pyrrolylthionato) [^99g Tc]oxotechnetium [compound 7]
[1]
  stability towards oxidation: stable towards oxidation

## Tc-99m-dimercaptosuccinic acid [DMSA, reference compound]
[4]; 1 hour post-injection
  activity in the calyx area: significant activity in the calyx area
  blood clearance (heart area used as a measure of blood activity): more rapidly cleared
[4]; 1 hour post-injection, left kidney only
  overall kidney uptake: highest activity
[4]
  scintigraphic image of the kidneys: kidneys are well visualised
[5]
  steady level of renal uptake, of the activity administered: ~30%
  time after injection until which renal activity increases: 6 to 8 h
[3]
  plasma protein binding: almost completely bound to the proteins

## ^99mTcO-disulfo-di-2-pyrrolylthionate [compound 9]
[4]
  accumulation in the cortex: 20%
[4]; 1 hour post-injection
  excretion rate as evaluated by measuring the activity found in the bladder: best excretion rate
[4]; as compared to DMSA, FIGS. 6-8
  detected radioactivity in the kidneys reaching a plateau: reach a plateau more rapidly
[4]; listed as TcSL-11
  scintigraphic image of the kidneys: better resolved the kidneys; also recorded: kidneys are well visualised
[4]; plateau at about 35 min to 1 hour post injection
  accumulation in the cortex at plateau: 22%

## ^99mTcO-tetrasulfo-di-2-pyrrolylthionate [compound 10]
[4]
  accumulation in the cortex: 20%
[4]; 1 hour post-injection
  excretion rate as evaluated by measuring the activity found in the bladder: best excretion rate
